Columns and labels:
[1] = test system: PKC-θ at Ser 643/676; test: LPS multi-well plate phosphorylation screen in MDA MB-231 cells; format: cell-based, human; conditions: 100 μg/mL, 72 hrs
Excerpt: (§1) Layered Protein Scanning (LPS) is a method for screening liquid protein samples in a high throughput manner using multi-well plates [Englert, C. R. et al., Cancer Res., 60: 1526-1530, 2000], and conducted by 20/20 Gene Systems, Inc., (Rockville, Md.). In short, cells are lysed and protein extract loaded into the wells of vacuum manifold and transferred through a stack of membranes. From each set of samples, up to five dot blot membranes are generated.
(§2) MDA MB-231 human breast cancer cells were treated, with or without 100 μg/mL pentamer, for 48 and 72 hours. Cells were lysed in LPS/MWP lysis buffer (20/20 Gene Systems, Inc.). Protein concentration was determined using BCA Protein Assay Kit (Pierce, Rockford, Ill.). Ten and 20 μg of each protein sample was loaded in duplicate onto Bio-Dot Microfiltration Apparatus (BioRad, Philadelphia, Pa.) and transferred through a 5-membrane stack as recommended by the manufacturer (20/20 Gene Systems). After the transfer, all of the membranes were biotinylated in 1 mg/mL EZ-Link Sulfo-NHS-Biotin solution in 1×PBS for 10 minutes at room temperature (Pierce).
(§3) Membranes were incubated overnight at 4° C. with the antibodies shown in Table 1 (1:500 or 1:1000 dilution). The following day, membranes were washed in Tris-buffered saline with Tween 20 (0.1%) (TBST buffer) and incubated for 60 minutes at room temperature in a mixture of FluoroLink Cy 5-labeled Streptavidin (1:500, Amersham) and Fluorescein-labeled secondary anti-mouse or anti-rabbit antibody (1:2,000, Molecular Probes, Eugene, Oreg.), followed by washes in TBST. Membranes were dried and scanned on a Typhoon scanner (Amersham), and obtained images were analyzed with InageQuant software (Amersham). Data were plotted in Excel and statistically analyzed in JMP (SAS Institute, Inc., Cary, N.C.). Hierarchical clustering analysis was performed to evaluate segregation of samples into control and treated groups.

[2] = test system: FKHR (Ser256); test: as above; format: cell-based, human; conditions: 100 μg/mL, 72 hours, densitometry vs control
Excerpt: as §1, §2, §3

SMILES: Oc1cc(O)c2c(c1)O[C@H](c1ccc(O)c(O)c1)[C@H](O)[C@H]2c1c(O)cc(O)c2c1O[C@H](c1ccc(O)c(O)c1)[C@H](O)[C@H]2c1c(O)cc(O)c2c1O[C@H](c1ccc(O)c(O)c1)[C@H](O)[C@H]2c1c(O)cc(O)c2c1O[C@H](c1ccc(O)c(O)c1)[C@H](O)[C@H]2c1c(O)cc(O)c2c1O[C@H](c1ccc(O)c(O)c1)[C@H](O)C2 [pentamer, pentameric procyanidin]
- phosphorylation of PKC-θ at Ser 643/676 decreased [1]: 49%
- phosphorylation of FKHR (Ser256) decreased [2]: 63%
